{
  "source": "paper doi:10.1101/2025.03.30.646192v1",
  "about": "(biorxiv, 2025)",
  "data": [
    {"target": "T1, D2R (D2 dopamine receptor; HA-hDRD2-SmBiT) (Homo sapiens, UniProt P14416)", "T1 sequence (P14416 whole entry)": "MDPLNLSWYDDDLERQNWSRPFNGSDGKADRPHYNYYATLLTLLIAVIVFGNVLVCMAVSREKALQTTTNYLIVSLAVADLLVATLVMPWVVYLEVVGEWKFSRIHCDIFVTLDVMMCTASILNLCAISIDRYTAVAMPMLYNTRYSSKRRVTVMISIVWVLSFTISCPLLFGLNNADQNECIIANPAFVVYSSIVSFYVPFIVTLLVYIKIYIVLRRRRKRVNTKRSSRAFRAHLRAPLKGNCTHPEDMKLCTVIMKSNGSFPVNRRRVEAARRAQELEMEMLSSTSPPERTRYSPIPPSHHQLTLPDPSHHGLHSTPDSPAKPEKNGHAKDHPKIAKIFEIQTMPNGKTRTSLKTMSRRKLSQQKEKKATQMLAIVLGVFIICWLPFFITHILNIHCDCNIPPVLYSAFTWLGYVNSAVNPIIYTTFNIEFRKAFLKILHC", "test": "competition with [3H]-raclopride, membranes", "conditions": "not given", "units": {"Ki": "µM"}, "values": [
      {"smiles": "CNC[C@H](O)c1ccc(O)c(O)c1", "note": "[adrenaline]", "Ki": 7.08},
      {"smiles": "NCC(O)c1ccccc1", "note": "(stereo not drawn) [hydroxyphenethylamine]", "Ki": 195},
      {"smiles": "CNCCc1ccc(O)c(O)c1", "note": "[methyldopamine]", "Ki": 0.0603},
      {"smiles": "CNCCc1ccccc1", "note": "[n-methyl-phenetylamine]", "Ki": 17},
      {"smiles": "NCC(O)c1cccc(O)c1", "note": "(stereo not drawn) [norphenylephrine]", "Ki": 17},
      {"smiles": "NC[C@H](O)c1ccc(O)cc1", "note": "[octopamine]", "Ki": "347 ± 60.1"},
      {"smiles": "CNC[C@H](O)c1cccc(O)c1", "note": "[phenhyleprine]", "Ki": 15.1},
      {"smiles": "CNCC(O)c1ccc(O)cc1", "note": "(stereo not drawn) [synephrine]", "Ki": 87.1}
    ]},
    {"target": "T1, D2R (D2 dopamine receptor; HA-hDRD2-SmBiT)", "test": "competition with [3H]-raclopride, membranes", "conditions": "pH 7.4, RT, 10 mM MgCl2, orthosteric", "units": {"Ki": "pKi"}, "values": [
      {"smiles": "NCCc1ccccc1", "note": "[phenetylamine]", "Ki": "4.73 ± 0.52"}
    ]},
    {"target": "T1, D2R (D2 dopamine receptor; HA-hDRD2-SmBiT)", "test": "competition with [3H]-raclopride, membranes", "conditions": "not given", "remark": "another data set of the same source", "units": {"Ki": "µM"}, "values": [
      {"smiles": "NCCc1cccc(O)c1", "note": "[m-tyramine]", "Ki": 1.86},
      {"smiles": "NC[C@H](O)c1ccc(O)c(O)c1", "note": "[noradrenaline]", "Ki": 9.55},
      {"smiles": "NCCc1ccc(O)cc1", "note": "[p-tyramine]", "Ki": 77.6}
    ]}
  ]
}
